Patent publication US9185910B2, “Amide compound” (Sumitomo Chemical Company, Limited, priority 2012, dated 2015)

What was measured:
[1] = tested on: Haemaphysalis longicornis; assay: Test Example 11: coated screw tube contact test, Haemaphysalis longicornis ticks; assay type: in vivo; conditions: 2 mg compound coated on inner wall of screw tube, non-blood-sucking nymphal ticks, after 2 days
Method: 2 mg of each of Compounds of Present Invention 7, 20, 25, 28, 48, 55, 65 and 110 was weighed in a screw tube (Maruemu No. 5; 27×55 mm), and 0.2 mL of acetone was added thereto and sealed with a cap to dissolve the compound. The screw tube was rotated and inverted to uniformity coat the drug solution onto the whole inner wall of the tube. After removing the cap, the solution was air-dried for about 2 hours, then non-blood-sucking nymphal ticks, Haemaphysalis longicornis (5 ticks/group) were released, and the tube was sealed with the cap. After 2 days, the number of dead ticks was examined, and the death rate was calculated according to the following equation: Death rate (%)=100×(Number of dead ticks/Number of tested ticks).

Musca domestica = assay: Test Example 8: filter paper with sucrose bait, Musca domestica; assay type: in vivo; conditions: 500 ppm, 0.7 ml on filter paper, female imagoes, after 24 hours
Method: The formulations of Compounds of Present Invention 31, 41, 55, 62, 64 to 65, 67 to 70, 73 to 75, 88, 119, 124 and 131 as obtained in Formulation Example 5 were diluted with water, so as to have a concentration of the active ingredient of 500 ppm, to prepare a test drug solution.
A filter paper having a diameter of 5.5 cm was spread on the bottom of a polyethylene cup having the same diameter and 0.7 ml of the test drug solution was added dropwise onto the filter paper, and 30 mg of sucrose was uniformly placed as bait. Into the polyethylene cup, 10 female imagoes of Musca domestica were released, and the cup was sealed with a lid. After 24 hours, the life and death of Musca domestica was examined, and the death rate was calculated. Death rate (%)=(Number of dead insects/Number of tested insects)×100

Structure (SMILES)	Death rate (%) [1]	Death rate (%) (Musca domestica)
CCSc1cccnc1C(=O)Nc1ccc(C(F)(F)F)nc1 [compound 20]	100%	–
CCSc1cccnc1C(=O)N(C)c1ccc(I)cn1 [compound 70]	–	100%
CCSc1cccnc1C(=O)N(C)c1ccc(C(F)(F)C(F)(F)F)c(Cl)n1 [compound 110]	100%	–
CCS(=O)(=O)c1cc(NC(=O)OC)cnc1C(=O)N(C)c1ccc(SC(F)(F)F)cc1 [compound 119]	–	100%
CCSc1cc(Cl)cnc1C(=O)N(C)c1ccc(C(F)(F)F)cc1 [compound 131]	–	100%
